For assay [1], the target named is IL-17A(FLAG-Tagged): IL-17RA(His-Tagged) (Homo sapiens, UniProt Q16552, K93Q). Briefly: IL-17A(FLAG-Tagged): IL-17RA(His-Tagged) Binding Disruption Eu-HTRF Assay, Protocol 1. The following applies: Protocol 1, FLAG tagged IL-17A 2.5 nM; simple average if tested more than once. From the text:
An antibody directed against the FLAG tag of IL-17A (SEQ ID NO: 1) is labeled with the HTRF donor chromophore (Europium-cryptate). IL-17A is present as a dimer that is “locked into” this quaternary structure due to the formation of loop-spanning […] disulfide bridges. The construct of IL-17RA used in the assay excludes the […] portion of the receptor and is fused to a C-terminal 10×His tag (SEQ ID NO:2). An antibody directed against the His tag of the IL-17RA chimera is labeled with the HTRF acceptor chromophore (“D2”). The fluorescence-resonance energy transfer (FRET) depends on the vicinity of the donor chromophore to the acceptor, and interruption of the binding between the IL-17A and IL-17RA causes the reduction/loss of FRET. Therefore, this assay allows to evaluate the compound effect on the binding IL-17A and IL-17RA by monitoring the fluorescence intensity of donor vs acceptor. The assay was run using either Protocol 1 or Protocol 2 as described below.
Protocol 1. 40 nl of 2-fold serial diluted compound solution for total 22 dilution points is added into each well of a 1536-well, white, low-volume, non-binding plate (Greiner #782904), then 2 μl of FLAG tagged IL-17A at 2× final concentration (2.5 nM) in solution of PBS+0.01% Triton-X100 is added to each well. The assay plate is briefly centrifuged then incubated for 1 h at rt. A mixed solution is prepared containing 2×5 nM 10HIS×IL-17RA, 2×2.5 nM Eu-anti-FLAG (CISBIO), 2×5 nM D2-anti-HIS (CISBIO) in PBS+0.01% Triton-X100+200 mM Potassium Fluoride (Sigma 60238) and 2 μl of mix is added to each well of the assay plate. The plate is briefly centrifuged then incubated for 2 h at rt. The HTRF intensities at the wavelength of donor (620 nm) and acceptor (665 nm) are measured using BMG Pherastar. The ratio between intensities at two wavelengths is calculated and plotted against the compound concentration and the data is fitted to a one-site competition model to yield IC50 of the compound.

The test system of assay [2] is IL-17A-induced G-CSF production in human normal keratinocyte (NHK). Briefly: NHK Assay: IL-17A-induced G-CSF production in human normal keratinocyte. It counts as cell-based. The conditions noted are these: Homo sapiens, Keratinocyte, 24 h, IL-17A 5 ng/mL, simple average if tested more than once. The protocol: IL-17A acts directly on keratinocytes through binding to dimeric receptor IL-17RA/RC and drives the production of a number of inflammatory mediators known to be elevated in psoriasis lesional tissue. IL-17A small molecule inhibitors that block the IL-17A to interact with IL-17R would inhibit the IL-17A signaling in its targeted cells such as keratinocytes. The compound functional activity is evaluated for its impact on IL-17A-induced G-CSF production in human normal keratinocyte (NHK).
Adult normal human keratinocytes are cultured in keratinocyte growth medium (Lonza) in a flask till reaching ˜90% confluence, then cells are transferred to a 384-well plate at density of 3000-4000 cell/well. Recombinant human IL-17A (Gibco PHC9174) is pre-incubated with titrated compound or DMSO for 1 h at rt then added to the cell culture plate. The final concentration of IL-17A is 5 ng/mL and DMSO is 0.2%, in the culture containing 5% FBS. Cells are cultured/treated for 24 h at 37° C. Supernatants are collected and G-CSF production is measured through HTRF technology using Human G-CSF Kit (CisBio). G-CSF concentration was extrapolated from the standard curve and IC50 is determined using GraphPad Prism. Cell viability is also evaluated using CellTiter-Glo kit (Promega) and effect of compound on cell viability is compared to DMSO control.

Where only a bound is given, the exact number is not on record here.

The IC50 is the midpoint of a concentration-inhibition curve. A lower IC50 goes with greater potency.

UniProt Q16552, sequence (Q16552 with tags, fused parts or gaps K93Q): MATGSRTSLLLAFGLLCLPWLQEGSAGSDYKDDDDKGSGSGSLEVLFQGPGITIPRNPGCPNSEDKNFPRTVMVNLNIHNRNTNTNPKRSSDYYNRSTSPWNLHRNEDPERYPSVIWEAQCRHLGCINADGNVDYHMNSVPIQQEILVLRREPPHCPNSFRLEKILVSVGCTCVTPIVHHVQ

Turning to `CC(C)(OC[C@H](NC(=O)c1nonc1C1CC1)c1nc2cc(CN3C[C@@](C)(C(F)(F)F)NC3=O)ccc2[nH]1)C(F)(F)F` (relative stereo) [Example 61, 4-Cyclopropyl-N—((R*)-1-(5-(((S*)-4-methyl-2-oxo-4-(trifluoromethyl)imidazolidin-1-yl)methyl)-1H-benzo[d]imidazol-2-yl)-2-((1,1,1-trifluoro-2-methylpropan-2-yl)oxy)ethyl)-1,2,5-oxadiazole-3-carboxamide], the IC50 in assay [1] and in assay [2] was below 50 nM each time.

On to `Cc1nonc1C(=O)N[C@@H](COC(C)(C)C(F)(F)F)c1nc2ccc(CN3CC(F)(F)CNC3=O)cc2[nH]1` [Example 28, (R)—N-(1-(6-((5,5-Difluoro-2-oxotetrahydropyrimidin-1(2H)-yl)methyl)-1H-benzo[d]imidazol-2-yl)-2-((1,1,1-trifluoro-2-methylpropan-2-yl)oxy)ethyl)-4-methyl-1,2,5-oxadiazole-3-carboxamide], for which the IC50 in assay [1] and in assay [2] was below 50 nM each time.

As to `CC(C)n1nccc1C(=O)N[C@@H](COC(C)(C)C(F)(F)F)c1nc2nc(CN3C[C@@H](C(F)(F)F)NC3=O)ccc2[nH]1` (relative stereo) [Example 37, 1-Isopropyl-N—((R*)-1-(5-(((S*)-2-oxo-4-(trifluoromethyl)imidazolidin-1-yl)methyl)-1H-imidazo[4,5-b]pyridin-2-yl)-2-((1,1,1-trifluoro-2-methylpropan-2-yl)oxy)ethyl)-1H-pyrazole-5-carboxamide], the IC50 in assay [1] and in assay [2] was above 100 nM throughout.

In the case of `Cc1nonc1C(=O)N[C@@H](COC(C)(C)C(F)(F)F)c1nc2cc(CN3C[C@](C)(C(F)(F)F)NC3=O)ccc2[nH]1` (relative stereo) [Example 57, 4-Methyl-N—((R*)-1-(5-(((R*)-4-methyl-2-oxo-4-(trifluoromethyl)imidazolidin-1-yl)methyl)-1H-benzo[d]imidazol-2-yl)-2-((1,1,1-trifluoro-2-methylpropan-2-yl)oxy)ethyl)-1,2,5-oxadiazole-3-carboxamide], the IC50 in assay [1] is below 50 nM; in assay [2] it was above 100 nM.

For the compound `Cc1nonc1C(=O)NC(COC(C)(C)C(F)(F)F)c1nc2cc([C@@H](COC3CC3)N3C[C@@H](C(F)(F)F)NC3=O)ccc2[nH]1` (single isomer, unassigned) [Example 41, N—((R*)-1-(5-((S)-2-cyclopropoxy-1-((S)-2-oxo-4-(trifluoromethyl)imidazolidin-1-yl)ethyl)-1H-benzo[d]imidazol-2-yl)-2-((1,1,1-trifluoro-2-methylpropan-2-yl)oxy)ethyl)-4-methyl-1,2,5-oxadiazole-3-carboxamide], the 50% inhibitory concentration (IC50) in assay [1] and in assay [2] was below 50 nM throughout.

For `CC(C)(OC[C@H](NC(=O)c1nonc1C1CC1)c1nc2cc(CN3CC(C(F)(F)F)NC3=O)ccc2[nH]1)C(F)(F)F` (stereo in doubt) [Example 33, 4-Cyclopropyl-N—((R)-1-(5-(((R*)-2-oxo-4-(trifluoromethyl)imidazolidin-1-yl)methyl)-1H-benzo[d]imidazol-2-yl)-2-((1,1,1-trifluoro-2-methylpropan-2-yl)oxy)ethyl)-1,2,5-oxadiazole-3-carboxamide], the IC50 in assay [1] was 50 to 100 nM; in assay [2] it was above 100 nM.

Take `CC(C)n1nccc1C(=O)N[C@@H](COC(C)(C)C(F)(F)F)c1nc2cc([C@@H](C)N3CC(F)(F)CNC3=O)ccc2[nH]1` (relative stereo) [Example 27, N—((R)-1-(5-((R*)-1-(5,5-Difluoro-2-oxotetrahydropyrimidin-1(2H)-yl)ethyl)-1H-benzo[d]imidazol-2-yl)-2-((1,1,1-trifluoro-2-methylpropan-2-yl)oxy)ethyl)-1-isopropyl-1H-pyrazole-5-carboxamide]: the IC50 in assay [1] and in assay [2] was below 50 nM throughout.

For the compound `[2H]C1([2H])NC(=O)N([C@@H](c2ccc3[nH]c([C@H](COC(C)(C)C(F)(F)F)NC(=O)c4ccnn4C(C)C)nc3c2)C2CC2)C([2H])([2H])C1(F)F` [Example 79, N—((R)-1-(5-((R)-Cyclopropyl(5,5-difluoro-2-oxotetrahydropyrimidin-1(2H)-yl-4,4,6,6-d4)methyl)-1H-benzo[d]imidazol-2-yl)-2-((1,1,1-trifluoro-2-methylpropan-2-yl)oxy)ethyl)-1-isopropyl-1H-pyrazole-5-carboxamide], in assay [2], the IC50 is below 50 nM.

As to `CO[C@@H](CC(F)(F)F)[C@H](NC(=O)c1nonc1C)c1nc2cc(CN3C[C@@H](C(F)(F)F)NC3=O)ccc2[nH]1` (relative stereo) [Example 91, 4-Methyl-N-((1R*,2S*)-4,4,4-trifluoro-2-methoxy-1-(5-(((S)-2-oxo-4-(trifluoromethyl)imidazolidin-1-yl)methyl)-1H-benzo[d]imidazol-2-yl)butyl)-1,2,5-oxadiazole-3-carboxamide], in assay [2], the IC50 was below 50 nM.

The compound `C[C@H](O[C@H](C)[C@H](NC(=O)c1nonc1C1CC1)c1nc2cc([C@@H](COC3CC3)N3C[C@@H](C(F)(F)F)NC3=O)ccc2[nH]1)C(F)(F)F` [Example 68, N-((1R,2R)-1-(5-((S)-2-Cyclopropoxy-1-((S)-2-oxo-4-(trifluoromethyl)imidazolidin-1-yl)ethyl)-1H-benzo[d]imidazol-2-yl)-2-(((S)-1,1,1-trifluoropropan-2-yl)oxy)propyl)-4-cyclopropyl-1,2,5-oxadiazole-3-carboxamide] returned an IC50 in assay [2] below 50 nM.

On to `COC[C@H](c1ccc2[nH]c([C@@H](NC(=O)c3nonc3C)[C@@H](C)OC3CC3)nc2c1)N1CC(F)(F)CNC1=O` [Example 65, N-((1R,2R)-2-Cyclopropoxy-1-(5-((S)-1-(5,5-difluoro-2-oxotetrahydropyrimidin-1(2H)-yl)-2-methoxyethyl)-1H-benzo[d]imidazol-2-yl)propyl)-4-methyl-1,2,5-oxadiazole-3-carboxamide], for which the IC50 in assay [2] is below 50 nM.

On to `[2H]C1([2H])NC(=O)N([C@@H](c2ccc3[nH]c([C@H](COC(C)(C)C(F)(F)F)NC(=O)c4nonc4C)nc3c2)C2CC2)CC1(F)F` [Example 81, N-[(1R)-1-[5-[(R)-Cyclopropyl-(4,4-dideuterio-5,5-difluoro-2-oxo-hexahydropyrimidin-1-yl)methyl]-1H-benzimidazol-2-yl]-2-(2,2,2-trifluoro-1,1-dimethyl-ethoxy)ethyl]-4-methyl-1,2,5-oxadiazole-3-carboxamide], for which, in assay [2], the IC50 was below 50 nM.

As for `COC[C@H](c1ccc2[nH]c([C@@H](NC(=O)c3nonc3C3CC3)[C@@H](C)OC3CC3)nc2c1)N1CC(F)(F)CNC1=O` [Example 43, N-((1R,2R)-2-Cyclopropoxy-1-(5-((S)-1-(5,5-difluoro-2-oxotetrahydropyrimidin-1(2H)-yl)-2-methoxyethyl)-1H-benzo[d]imidazol-2-yl)propyl)-4-cyclopropyl-1,2,5-oxadiazole-3-carboxamide], the IC50 in assay [2] is below 50 nM.

Take `Cc1nonc1C(=O)N[C@@H](COC(C)(C)C(F)(F)F)c1nc2cc([C@@H](C3CC3)N3CC(CC(F)(F)F)NC3=O)ccc2[nH]1` (single isomer, unassigned) [Example 88, N—((R)-1-(5-((R)-Cyclopropyl((R*)-2-oxo-4-(2,2,2-trifluoroethyl)imidazolidin-1-yl)methyl)-1H-benzo[d]imidazol-2-yl)-2-((1,1,1-trifluoro-2-methylpropan-2-yl)oxy)ethyl)-4-methyl-1,2,5-oxadiazole-3-carboxamide]: the IC50 in assay [2] was below 50 nM.

Source of the values: patent US20250122181A1, “BENZIMIDAZOLES AS MODULATORS OF IL-17” (Janssen Pharmaceutica NV, priority 2021, published 2025).
